Experimental data taken from US20030134774A1, “Methods for inhibiting cardiac disorders” (priority 2001, published 2003).

Assays:
cardiomyocytes [1] = test: TUNEL assay of apoptosis in cardiomyocyte cultures; format: cell-based, rat; conditions: 500 μM, 24 hr
Description: rPMT increases H2O2-induced apoptosis in cardiomyocyte cultures. Cells were treated without or with rPMT (400 ng/ml) for 24 hr followed by H202 (500 μM) for 24 hr. The percentage of cells undergoing apoptosis was measured by TUNEL assay as described in Methods below. Data are from a single experiment and are representative of results obtained on 3 separate culture preparations.
TUNEL staining was performed for detection of apoptotic cells according to manufacturer's instructions (Boehringer). Approximately 500 cardiomyocytes were imaged by fluorescence microscopy and the number of cells that scored TUNEL-positive is presented as a percentage of total.

cardiomyocytes [2] = test: Tolerance of cardiomyocytes to prolonged incubation with inhibitor; conditions: prolonged (24 hr) incubations
PKCδ and PKCε = test: Immunoblot of nPKC isoform abundance in cardiomyocytes; format: cell-based, rat; conditions: 24 hr stimulation
Description: (§1) rPMT selectively activates nPKC isoforms. Cardiomyocyte cultures were incubated in culture medium without or with NE (10 μM), rPMT (400 ng/ml) or PMA (100 nM) for 24 hr (Panels A and C) or 5 min (Panel B). Soluble extracts were prepared and separated by SDS-PAGE followed by immunodetection of total PKC isoform abundance with antibodies that are specific for the individual PKC isoforms (Panel A), or phosphorylated forms of PKC (largely PKCε) with a pan-phospho-PKC antibody (Panels B and C), as described in Methods below. GF109203 was included at 5 μM 30 min prior to stimulation as indicated.
(§2) Cells were maintained in culture in the presence of 10% FCS for 96 hr and then switched to serum-free medium for 24 hr prior to the addition of agonists as indicated. For PKC, extracts were prepared and subjected to SDS-PAGE to resolve individual isoforms according to methods described previously (14).
(§3) Specific immunoreactivity for individual PKC isoforms was quantified according to methods described previously. […] Bands were detected by enhanced chemiluminescence and blots were quantified by laser scanning densitometry.

PKC-ε = target: T1, PKC-ε (Rattus norvegicus, UniProt P09216); test: Western blot with anti-phospho-PKC antibody in cardiomyocytes; format: cell-based; conditions: NE 10 μM or PMA 100 nM for 5 min
T1 construct: PKCε is detected as a single band in quiescent cardiomyocytes; endogenous in cells; host or cells: cultured neonatal rat ventricular cardiomyocytes
T1 sequence (P09216 1-737): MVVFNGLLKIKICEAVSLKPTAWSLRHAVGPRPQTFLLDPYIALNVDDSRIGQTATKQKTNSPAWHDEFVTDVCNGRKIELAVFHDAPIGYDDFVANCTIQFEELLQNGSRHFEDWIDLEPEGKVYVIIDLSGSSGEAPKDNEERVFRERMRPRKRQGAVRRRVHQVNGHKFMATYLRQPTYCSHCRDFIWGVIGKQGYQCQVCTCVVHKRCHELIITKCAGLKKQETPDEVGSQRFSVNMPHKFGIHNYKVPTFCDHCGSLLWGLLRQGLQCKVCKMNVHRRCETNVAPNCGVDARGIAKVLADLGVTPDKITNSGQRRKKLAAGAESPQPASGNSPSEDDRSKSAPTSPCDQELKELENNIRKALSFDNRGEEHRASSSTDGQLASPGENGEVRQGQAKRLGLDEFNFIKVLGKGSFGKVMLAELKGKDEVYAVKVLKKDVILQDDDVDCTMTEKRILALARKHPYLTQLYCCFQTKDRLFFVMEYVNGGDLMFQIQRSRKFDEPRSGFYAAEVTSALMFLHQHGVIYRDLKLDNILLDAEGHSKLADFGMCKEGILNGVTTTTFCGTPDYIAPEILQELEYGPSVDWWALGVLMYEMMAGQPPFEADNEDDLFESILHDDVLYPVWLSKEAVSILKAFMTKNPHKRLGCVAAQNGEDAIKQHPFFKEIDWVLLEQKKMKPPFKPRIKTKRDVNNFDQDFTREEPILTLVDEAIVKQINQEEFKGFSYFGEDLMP
Description: as §1
(§4) Specific immunoreactivity for individual PKC isoforms was quantified according to methods described previously. For assays of MAPKs and AKT, cells were exposed to test agents as indicated in individual experimental protocols, washed three times with ice-cold calcium/magnesium-free Dulbecco's PBS (pH 7.1), scraped into ice-cold extraction buffer [20 mM β-glycerophosphate pH 7.5, 20 mM sodium fluoride, 2 mM EDTA, 0.2 mM sodium vanadate, 10 μg/ml aprotinin, 25 μg/ml leupeptin, 50 μg/ml PMSF, and 0.3% (v/v) β-mercaptoethanol], lysed by sonication, and centrifuged at 10,000 g for 10 min at 4° C. The supernatant was diluted in SDS-PAGE sample buffer, boiled for 5 min, and stored at −70° C. Western blot analysis was performed with antibodies that are selective for the phosphorylated (activated) forms of ERK1/2, p38-MAPK, JNK, AKT, and pan-PKC according to manufacturer's instructions. For each panel in each Figure, the results are from a single gel exposed for a uniform duration. Bands were detected by enhanced chemiluminescence and blots were quantified by laser scanning densitometry.

AKT = test: Phospho-AKT and total AKT Western blot in cardiomyocytes; format: cell-based, rat; conditions: 5 min; PMA 100 nM, NE 10 μM
Description: rPMT decreases basal AKT phosphorylation and prevents its phosphorylation by EGF. Neonatal rat cardiomyocytes were treated with rPMT (400 ng/ml) for 24 hr (Panel A), 48 hr (Panel B) or with EGF (50 ng/ml) for 5 min. Cell lysates were subjected to SDS-PAGE followed by Western blotting with antibodies that recognize the phosphorylated form or total AKT. Data are from representative gels, with similar results obtained in 3 separate experiments.
Panel A: Cells were treated with norepinephrine (NE, 10 μM) or PMA (100 nM) for 5 min without or with GF109203 (5 μM).
Panel B: Cells were treated with rPMT (400 ng/ml), NE (10 μM) or PMA (100 nM) for 24 hr without or with Go6983 (5 μM). […] Cell lysates were subjected to SDS-PAGE followed by Western blotting using a specific anti-phospho-AKT antibody. Data are from representative gels, with similar results obtained in 3 separate culture preparations.
as §4

PKCα and PKCλ = test: Immunoblot of PKCα/PKCλ abundance and distribution in cardiomyocytes; format: cell-based, rat; conditions: 24 hr stimulation
Description: as §1, §2, §3

cardiomyocytes [3] = test: Protein synthesis ([3H]phenylalanine incorporation) in cardiomyocytes; format: cell-based, rat; conditions: rPMT 400 ng/ml or NE 10 μM, 48 hr, serum-free
Description: (§5) rPMT mimics the effect of norepinephrine to promote cardiomyocyte hypertrophy. Cardiomyocytes were cultured in serum-free medium without or with rPMT (400 ng/ml) or norepinephrine (NE, 10 μM) for 48 hr. Cardiomyocytes were fixed, permeabilized, and stained with monoclonal anti-α-actinin sarcomeric (Panel A, magnification×100) or subjected to Northern blot analysis for measurements of steady-state ANF mRNA expression (Panel B). Effects of rPMT (black bars) and NE (gray bars) vs. vehicle (white bars) on sarcomeric organization (Panel C), cell size (Panel D), and protein synthesis (Panel E) are illustrated (n=3 for each).
As a second index of cardiomyocyte growth, relative rates of protein synthesis were measured as radiolabeled phenylalanine incorporation into cell protein. Cells were stimulated in serum-free medium with agonists (or vehicle as control) for 48 hr at 37° C. The medium was replaced with serum-free medium containing [^3H]phenylalanine (0.1 μCi/ml) and non-radioactive phenylalanine (0.3 mM, to minimize variations in the specific activity of the precursor pool responsible for protein synthesis) during the final 24 hr of stimulation. Cells were rinsed with PBS and incubated in 10% trichloroacetic acid for 30 min on ice. […] Aliquots of the SDS-soluble protein were counted in 5 ml of scintillant.

cardiomyocytes [4] = test: Cardiomyocyte growth: sarcomeric organization and cell size; format: cell-based, rat; conditions: rPMT 400 ng/ml or NE 10 μM, 48 hr, serum-free
Description: as §5
Cardiomyocyte growth was assessed by measuring cell surface area by digitized image analysis. For each experimental point, 7-10 frames/dish were recorded at 40× magnification with a video camera attached to a Nikon microscope which was calibrated with a micrometer.
Cardiomyocytes were grown on slides precoated with fibronectin. After treatment, cells were fixed with cold methanol and permeabilized with 0.1% Triton X-100 and 0.2% BSA. Cells were incubated with α-actinin monoclonal antibody overnight at 4° C. followed by anti-mouse IgG-Cy3-labeled antibody for 30 min at room temperature. Fluorescence microscopy images were obtained at 100× magnification.

ANF mRNA = test: Northern blot analysis of ANF mRNA in cardiomyocytes; format: cell-based, rat; conditions: rPMT 400 ng/ml or NE 10 μM, 48 hr, serum-free
Description: as §5
Total RNA from neonatal rat cardiomyocytes were isolated by using a Qiagen kit according to manufacturer's instructions. A rat ANF cDNA probe (˜600 bp) was labeled with [^32P]dCTP. 10 μ/g of total RNA was separated on a 1% agarose gel and transferred to a nylon membrane (Amersham). Prehybridization and hybridization were performed according to standard methods. Normalization of signals was performed with a glyceraldehyde-3-phosphate dehydrogenase probe. Signals were detected by Phosphorimage analysis.

SMILES: OO [H202, reference compound]
- apoptosis (TUNEL) (cardiomyocytes [1]): induces apoptosis

SMILES: CC(=O)c1c(O)c(C)c(O)c(Cc2c(O)c3c(c(C(=O)/C=C/c4ccccc4)c2O)OC(C)(C)C=C3)c1O [rottlerin]
- tolerance of cardiomyocytes to the inhibitor (cardiomyocytes [2]): do not tolerate

SMILES: NC[C@H](O)c1ccc(O)c(O)c1 [NE, norepinephrine, reference compound]
- abundance of PKCδ and PKCε in the soluble fraction (PKCδ and PKCε): significantly reduce
- PKC-ε phosphorylation/activation (phospho-PKC band pattern) (PKC-ε): slower mobility, more-highly phosphorylated species
- basal AKT phosphorylation after acute treatment (AKT): not
- abundance and subcellular distribution of PKCα and PKCλ (PKCα and PKCλ): is not altered
- [3H]phenylalanine incorporation (protein synthesis) (cardiomyocytes [3]): enhance [^3H]phenylalanine incorporation
- cell size (cellular enlargement) (cardiomyocytes [4]): induce marked cellular enlargement
- myofibrillar (sarcomeric) organization (cardiomyocytes [4]): promote myofibrillar organization
- ANF mRNA expression (ANF mRNA): induce ANF mRNA expression
